Converted amounts (≈) assume the structure as drawn.
Tested on: COLO320DM cells
Experiment: COLO320DM cell growth inhibition test
Assay type: cell-based
Conditions: Homo sapiens, COLO 320DM; COLO320DM cells, cells counted with a microcell counter; read-out: cell growth inhibitory activity IC50, COLO320DM
Description: (§1) After incubation at 37° C. overnight in CO2 -incubator, 0.05 ml each of a test sample appropriately diluted with the culture medium is added to each well. In the case of contact for 72 hours, the cells are further cultured in CO2 -incubator, and then the culture supernatant is removed and the wells are washed once with PBS(-). Thereafter, 0.1 ml of fresh medium is added to each well, followed by culturing at 37° C. for 72 hours in CO2 -incubator. After the culture supernatant is removed, 0.1 ml of the culture medium containing 0.02% Neutral Red is added to each well, followed by culturing at 37° C. for one hour in CO2 -incubator, whereby the cells are stained. Then, the culture supernatant is removed and the cells are washed once with physiological saline. The pigment is extracted with 0.001N HCl/30% ethanol and absorption is measured at 550 nm with a microplate reader.
(4) COLO320DM cell growth inhibition test:
Thereafter, the test is carried out in the same manner as in (1) except that the cells are counted with a microcell counter.

SMILES | IC50 [µg/mL]
COC(=O)[C@@]1(O)C[C@H]2O[C@]1(C)n1c3ccccc3c3c4c(c5c6cc(N)ccc6n2c5c31)C(=O)NC4 (relative stereo) [Compound 9] | 0.05 (≈ 0.104 µM)
COC(=O)[C@@]1(O)C[C@H]2O[C@]1(C)n1c3ccc(N)cc3c3c4c(c5c6cc(N)ccc6n2c5c31)C(=O)NC4 (relative stereo) [Compound 10] | 0.1 (≈ 0.201 µM)
COC(=O)[C@@]1(O)C[C@H]2O[C@]1(C)n1c3ccccc3c3c4c(c5c6cccc(N)c6n2c5c31)C(=O)NC4 (relative stereo) [Compound 11] | 0.16 (≈ 0.332 µM)
COC(=O)[C@@]1(O)C[C@H]2O[C@]1(C)n1c3ccccc3c3c4c(c5c6cc(N(C)C)ccc6n2c5c31)C(=O)NC4 (relative stereo) [Compound 12] | 0.11 (≈ 0.215 µM)
C[C@]12O[C@H](C[C@]1(O)CO)n1c3ccc(O)cc3c3c4c(c5c6ccccc6n2c5c31)CNC4=O (relative stereo) [Compound 21] | 0.29 (≈ 0.637 µM)
C[C@]12O[C@H](C[C@]1(O)CO)n1c3ccc(N)cc3c3c4c(c5c6ccccc6n2c5c31)CNC4=O (relative stereo) [Compound 23] | 0.22 (≈ 0.484 µM)
C[C@]12O[C@H](C[C@]1(O)CO)n1c3ccc(Br)cc3c3c4c(c5c6ccccc6n2c5c31)CNC4=O (relative stereo) [Compound 24] | 0.06 (≈ 0.116 µM)
Cc1ccc2c(c1)c1c3c(c4c5ccccc5n5c4c1n2[C@H]1C[C@](O)(CO)[C@]5(C)O1)CNC3=O (relative stereo) [Compound 26] | 0.03 (≈ 0.0662 µM)
C[C@]12O[C@H](C[C@]1(O)COC(=O)CCC(=O)O)n1c3ccccc3c3c4c(c5c6ccccc6n2c5c31)CNC4=O (relative stereo) [Compound 27] | > 1
COC(=O)CNC[C@@]1(O)C[C@H]2O[C@]1(C)n1c3ccccc3c3c4c(c5c6ccccc6n2c5c31)C(=O)NC4 (relative stereo) [Compound 31] | 0.31 (≈ 0.607 µM)
C[C@]12O[C@H](C[C@]1(O)CNCC(=O)O)n1c3ccccc3c3c4c(c5c6ccccc6n2c5c31)CNC4=O (relative stereo) [Compound 32] | > 1
CN(C)C=NC[C@@]1(O)C[C@H]2O[C@]1(C)n1c3ccccc3c3c4c(c5c6ccccc6n2c5c31)C(=O)NC4 (relative stereo) [Compound 33] | 1 (≈ 2.03 µM)
C[C@]12O[C@H](C[C@]1(O)COC1CCCCO1)n1c3ccccc3c3c4c(c5c6ccccc6n2c5c31)CNC4=O (stereo partly shown) [Compound 28] | 0.32 (≈ 0.611 µM)
CC12OC(CC1(O)CNC(=O)CN)n1c3ccccc3c3c4c(c5c6ccccc6n2c5c31)CNC4=O (stereo not shown) [Compound 34] | 0.17 (≈ 0.343 µM)
CC12OC(CC1(O)CNC(=O)C1CCCN1)n1c3ccccc3c3c4c(c5c6ccccc6n2c5c31)CNC4=O (stereo not shown) [Compound 35] | 0.26 (≈ 0.485 µM)
CC12OC(CC13CO3)n1c3ccccc3c3c4c(c5c6ccccc6n2c5c31)CNC4=O (stereo not shown) [Compound 36] | 0.12 (≈ 0.285 µM)
CC12OC(CC1(O)CN1CCOCC1)n1c3ccccc3c3c4c(c5c6ccccc6n2c5c31)CNC4=O (stereo not shown) [Compound 38] | 0.3 (≈ 0.59 µM)

Tested on: MCF 7 cells
Experiment: MCF 7 cell growth inhibition test
Assay type: cell-based
Conditions: Homo sapiens, MCF7; MCF-7 cells, contact for 72 hours; read-out: cell growth inhibitory activity IC50, MCF-7
Description: (§2) Compound (I) was examined for C-kinase inhibitory activity and cell growth inhibitory activity by the following method.
(1) MCF 7 cell growth inhibition test:
as §1, with “MCF 7 cells (4.5×10^4 cells/ml) prepared in RPMI 1640 medium containing 10% fetal calf serum, 10 μg/ml insulin and 10^-8 M estradiol are put into wells of a 96-well microtiter plate in the amount of 0.1 ml per each well. After incubation” for “After incubation”, “microplate reader. By comparing the absorption of intact cells with those of the cells treated with a test compound in known concentrations, the concentration of the test compound at which growth of the cells is inhibited 50% is calculated as IC50.” for “microplate reader.”

SMILES | IC50 [µg/mL]
COC(=O)[C@@]1(O)C[C@H]2O[C@]1(C)n1c3ccccc3c3c4c(c5c6cc(N)ccc6n2c5c31)C(=O)NC4 (relative stereo) [Compound 9] | 0.13 (≈ 0.269 µM)
COC(=O)[C@@]1(O)C[C@H]2O[C@]1(C)n1c3ccc(N)cc3c3c4c(c5c6cc(N)ccc6n2c5c31)C(=O)NC4 (relative stereo) [Compound 10] | 0.95 (≈ 1.91 µM)
COC(=O)[C@@]1(O)C[C@H]2O[C@]1(C)n1c3ccccc3c3c4c(c5c6cccc(N)c6n2c5c31)C(=O)NC4 (relative stereo) [Compound 11] | 0.47 (≈ 0.974 µM)
COC(=O)[C@@]1(O)C[C@H]2O[C@]1(C)n1c3ccccc3c3c4c(c5c6cc(N(C)C)ccc6n2c5c31)C(=O)NC4 (relative stereo) [Compound 12] | 0.36 (≈ 0.705 µM)
C[C@]12O[C@H](C[C@]1(O)CO)n1c3ccc(O)cc3c3c4c(c5c6ccccc6n2c5c31)CNC4=O (relative stereo) [Compound 21] | 0.76 (≈ 1.67 µM)
C[C@]12O[C@H](C[C@]1(O)CO)n1c3ccc(N)cc3c3c4c(c5c6ccccc6n2c5c31)CNC4=O (relative stereo) [Compound 23] | 0.34 (≈ 0.748 µM)
C[C@]12O[C@H](C[C@]1(O)CO)n1c3ccc(Br)cc3c3c4c(c5c6ccccc6n2c5c31)CNC4=O (relative stereo) [Compound 24] | 0.19 (≈ 0.367 µM)
Cc1ccc2c(c1)c1c3c(c4c5ccccc5n5c4c1n2[C@H]1C[C@](O)(CO)[C@]5(C)O1)CNC3=O (relative stereo) [Compound 26] | 0.26 (≈ 0.573 µM)
C[C@]12O[C@H](C[C@]1(O)COC(=O)CCC(=O)O)n1c3ccccc3c3c4c(c5c6ccccc6n2c5c31)CNC4=O (relative stereo) [Compound 27] | > 1
COC(=O)CNC[C@@]1(O)C[C@H]2O[C@]1(C)n1c3ccccc3c3c4c(c5c6ccccc6n2c5c31)C(=O)NC4 (relative stereo) [Compound 31] | 0.8 (≈ 1.57 µM)
C[C@]12O[C@H](C[C@]1(O)CNCC(=O)O)n1c3ccccc3c3c4c(c5c6ccccc6n2c5c31)CNC4=O (relative stereo) [Compound 32] | 0.74 (≈ 1.49 µM)
CN(C)C=NC[C@@]1(O)C[C@H]2O[C@]1(C)n1c3ccccc3c3c4c(c5c6ccccc6n2c5c31)C(=O)NC4 (relative stereo) [Compound 33] | 0.26 (≈ 0.527 µM)
C[C@]12O[C@H](C[C@]1(O)COC1CCCCO1)n1c3ccccc3c3c4c(c5c6ccccc6n2c5c31)CNC4=O (stereo partly shown) [Compound 28] | 1 (≈ 1.91 µM)
CC12OC(CC1(O)CNC(=O)CN)n1c3ccccc3c3c4c(c5c6ccccc6n2c5c31)CNC4=O (stereo not shown) [Compound 34] | 0.24 (≈ 0.484 µM)
CC12OC(CC1(O)CNC(=O)C1CCCN1)n1c3ccccc3c3c4c(c5c6ccccc6n2c5c31)CNC4=O (stereo not shown) [Compound 35] | 0.27 (≈ 0.504 µM)
CC12OC(CC13CO3)n1c3ccccc3c3c4c(c5c6ccccc6n2c5c31)CNC4=O (stereo not shown) [Compound 36] | 0.52 (≈ 1.23 µM)

Tested on: HeLaS3 cells
Experiment: HeLaS3 cell growth inhibition test
Assay type: cell-based
Conditions: Homo sapiens, HeLa S3; HeLaS3 cells, contact for 72 hours; read-out: cell growth inhibitory activity IC50, HeLaS3
Description: as §2
as §1, with “MCF 7 cells (4.5×10^4 cells/ml) prepared in RPMI 1640 medium containing 10% fetal calf serum, 10 μg/ml insulin and 10^-8 M estradiol are put into wells of a 96-well microtiter plate in the amount of 0.1 ml per each well. After incubation” for “After incubation”, “microplate reader. By comparing the absorption of intact cells with those of the cells treated with a test compound in known concentrations, the concentration of the test compound at which growth of the cells is inhibited 50% is calculated as IC50.” for “microplate reader.”
(3) HeLaS3 cell growth inhibition test:
HeLaS3 cells (3×10^4 cells/ml) prepared in MEM medium containing 10% fetal calf serum and 2 mM glutamine are put into wells of a 96-well microtiter plate in the amount of 0.1 ml per each well.
Thereafter, the test is carried out in the same manner as in (1).

IC50 [µg/mL] | SMILES
0.53 (≈ 0.982 µM) | C[C@]12O[C@H](C[C@]1(O)COC(=O)CCC(=O)O)n1c3ccccc3c3c4c(c5c6ccccc6n2c5c31)CNC4=O (relative stereo) [Compound 27]
0.08 (≈ 0.157 µM) | COC(=O)CNC[C@@]1(O)C[C@H]2O[C@]1(C)n1c3ccccc3c3c4c(c5c6ccccc6n2c5c31)C(=O)NC4 (relative stereo) [Compound 31]
0.22 (≈ 0.443 µM) | C[C@]12O[C@H](C[C@]1(O)CNCC(=O)O)n1c3ccccc3c3c4c(c5c6ccccc6n2c5c31)CNC4=O (relative stereo) [Compound 32]
0.08 (≈ 0.162 µM) | CN(C)C=NC[C@@]1(O)C[C@H]2O[C@]1(C)n1c3ccccc3c3c4c(c5c6ccccc6n2c5c31)C(=O)NC4 (relative stereo) [Compound 33]
0.2 (≈ 0.382 µM) | C[C@]12O[C@H](C[C@]1(O)COC1CCCCO1)n1c3ccccc3c3c4c(c5c6ccccc6n2c5c31)CNC4=O (stereo partly shown) [Compound 28]
0.03 (≈ 0.0605 µM) | CC12OC(CC1(O)CNC(=O)CN)n1c3ccccc3c3c4c(c5c6ccccc6n2c5c31)CNC4=O (stereo not shown) [Compound 34]
0.05 (≈ 0.0934 µM) | CC12OC(CC1(O)CNC(=O)C1CCCN1)n1c3ccccc3c3c4c(c5c6ccccc6n2c5c31)CNC4=O (stereo not shown) [Compound 35]
0.08 (≈ 0.19 µM) | CC12OC(CC13CO3)n1c3ccccc3c3c4c(c5c6ccccc6n2c5c31)CNC4=O (stereo not shown) [Compound 36]
0.18 (≈ 0.354 µM) | CC12OC(CC1(O)CN1CCOCC1)n1c3ccccc3c3c4c(c5c6ccccc6n2c5c31)CNC4=O (stereo not shown) [Compound 38]

Second part, the compound before the results:

SMILES | IC50 [µg/mL]
COC(=O)[C@@]1(O)C[C@H]2O[C@]1(C)n1c3ccccc3c3c4c(c5c6cc(N)ccc6n2c5c31)C(=O)NC4 (relative stereo) [Compound 9] | 0.01 (≈ 0.0207 µM)
COC(=O)[C@@]1(O)C[C@H]2O[C@]1(C)n1c3ccc(N)cc3c3c4c(c5c6cc(N)ccc6n2c5c31)C(=O)NC4 (relative stereo) [Compound 10] | 0.07 (≈ 0.141 µM)
COC(=O)[C@@]1(O)C[C@H]2O[C@]1(C)n1c3ccccc3c3c4c(c5c6cccc(N)c6n2c5c31)C(=O)NC4 (relative stereo) [Compound 11] | 0.1 (≈ 0.207 µM)
COC(=O)[C@@]1(O)C[C@H]2O[C@]1(C)n1c3ccccc3c3c4c(c5c6cc(N(C)C)ccc6n2c5c31)C(=O)NC4 (relative stereo) [Compound 12] | 0.17 (≈ 0.333 µM)
C[C@]12O[C@H](C[C@]1(O)CO)n1c3ccc(O)cc3c3c4c(c5c6ccccc6n2c5c31)CNC4=O (relative stereo) [Compound 21] | 0.46 (≈ 1.01 µM)
C[C@]12O[C@H](C[C@]1(O)CO)n1c3ccc(N)cc3c3c4c(c5c6ccccc6n2c5c31)CNC4=O (relative stereo) [Compound 23] | 0.15 (≈ 0.33 µM)
C[C@]12O[C@H](C[C@]1(O)CO)n1c3ccc(Br)cc3c3c4c(c5c6ccccc6n2c5c31)CNC4=O (relative stereo) [Compound 24] | 0.06 (≈ 0.116 µM)
Cc1ccc2c(c1)c1c3c(c4c5ccccc5n5c4c1n2[C@H]1C[C@](O)(CO)[C@]5(C)O1)CNC3=O (relative stereo) [Compound 26] | 0.03 (≈ 0.0662 µM)

Target: C-kinase (protein kinase C)
Experiment: C-Kinase inhibitory activity test
Assay type: biochemical
Conditions: enzyme activity inhibited 50%

C-Kinase inhibitory activity IC50 [µg/mL] | SMILES
0.017 | C[C@]12O[C@H](C[C@]1(O)COC(=O)CCC(=O)O)n1c3ccccc3c3c4c(c5c6ccccc6n2c5c31)CNC4=O (relative stereo) [Compound 27]
0.01 | C[C@]12O[C@H](C[C@]1(O)CNCC(=O)O)n1c3ccccc3c3c4c(c5c6ccccc6n2c5c31)CNC4=O (relative stereo) [Compound 32]
0.02 | CC12OC(CC13CO3)n1c3ccccc3c3c4c(c5c6ccccc6n2c5c31)CNC4=O (stereo not shown) [Compound 36]
0.10 | CC12OC(CC1(O)CN1CCOCC1)n1c3ccccc3c3c4c(c5c6ccccc6n2c5c31)CNC4=O (stereo not shown) [Compound 38]

More lines, now with the values behind:

SMILES | C-Kinase inhibitory activity IC50 [µg/mL]
COC(=O)[C@@]1(O)C[C@H]2O[C@]1(C)n1c3ccccc3c3c4c(c5c6cc(N)ccc6n2c5c31)C(=O)NC4 (relative stereo) [Compound 9] | 0.175
COC(=O)[C@@]1(O)C[C@H]2O[C@]1(C)n1c3ccc(N)cc3c3c4c(c5c6cc(N)ccc6n2c5c31)C(=O)NC4 (relative stereo) [Compound 10] | 0.02
C[C@]12O[C@H](C[C@]1(O)CO)n1c3ccc(O)cc3c3c4c(c5c6ccccc6n2c5c31)CNC4=O (relative stereo) [Compound 21] | 0.01
C[C@]12O[C@H](C[C@]1(O)CO)n1c3ccc(N)cc3c3c4c(c5c6ccccc6n2c5c31)CNC4=O (relative stereo) [Compound 23] | 0.038
